Where a SMILES comes first, the peptide text is derived from it. Bridges are numbered along the chain shown (N, C = ends). [ ]: non-standard residue; d: D form. The star is where a group is joined. ξ: configuration not given here. X1 = CC(C)(C)[Si](F)(c1ccc(C[N+](C)(C)CC(=O)*)cc1)C(C)(C)C; DO3AM = NC(=O)CN1CCN(CC(N)=O)CCN(CC(=O)*)CCN(CC(N)=O)CC1; ξW = NC(Cc1c[nH]c2ccccc12)C(=O)O; dDap = NC[C@@H](N)C(=O)O; ξF = NC(Cc1ccccc1)C(=O)O; ξD = NC(CC(=O)O)C(=O)O; ξC = NC(CS)C(=O)O
Columns and labels:
HSA = HSA (Homo sapiens, UniProt P02768); assay: HSA binding by RIAC method (gel filtration, apparent molecular weight); assay type: in vitro ADME; conditions: HSA binding as apparent molecular weight, 700 μM HSA in PBS mobile phase
Description: A gel filtration column Superdex 75 Increase 10/300 GL (GE Healthcare, Uppsala, Sweden) was beforehand calibrated following the producer's recommendations with a commercially available gel filtration calibration kit (GE Healthcare, Buckinghamshire, UK) comprising conalbumin (MW: 75 kDa), ovalbumin (44 kDa), carbonic anhydrase (29 kDa), ribonuclease A (13.7 kDa) and aprotinin (6.5 kDa) as reference proteins of known molecular weight. AMSEC experiments were conducted using a constant flow rate of 0.8 mL/min at rt. A solution of HSA in PBS at physiological concentration (700 μM) was used as the mobile phase. SST2 ligands were labelled as described with molar activities of 10-20 GBq/μmol. Probes of 1.0 MBq of the radioligand were injected directly from the labelling solution. HSA binding was expressed as an apparent molecular weight MW calculated from the retention time of the radioligand using the determined calibration curve.
For evaluation, experimentally determined retention times tR are first converted into elution volumes Ve by multiplying with the flow rate and thereafter converted into partition coefficients Kav following the equation
where V0 is the column void volume (8.027 mL) and Vc is the geometric column volume (24 mL). Using the equation given by the trend line plot of the column calibration
the apparent molecular weight MW is calculated as […]

[1] = Octanol-water distribution coefficient (logD pH 7.4) of the labeled tracer; assay type: physicochemical; conditions: n-octanol/PBS pH 7.4, room temperature
Outline: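 About 1 MBq tracer partitioned in 1:1 PBS pH 7.4/n-octanol, mixed 3 min at room temperature, centrifuged 15000 g for 5 min. Both layers counted by gamma counter; at least six repeats.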

SST2 = target: T1, SST2 (Homo sapiens, UniProt P30874); assay: Determination of IC50: competitive binding against [125I]TOC on SST2-transfected CHO cells; conditions: [125I]TOC reference radioligand, 60 min room temperature
T1 construct: expressed in transfected cells; host or cells: CHO (Chinese hamster ovary) cells
T1 sequence (P30874 whole entry, species assumed): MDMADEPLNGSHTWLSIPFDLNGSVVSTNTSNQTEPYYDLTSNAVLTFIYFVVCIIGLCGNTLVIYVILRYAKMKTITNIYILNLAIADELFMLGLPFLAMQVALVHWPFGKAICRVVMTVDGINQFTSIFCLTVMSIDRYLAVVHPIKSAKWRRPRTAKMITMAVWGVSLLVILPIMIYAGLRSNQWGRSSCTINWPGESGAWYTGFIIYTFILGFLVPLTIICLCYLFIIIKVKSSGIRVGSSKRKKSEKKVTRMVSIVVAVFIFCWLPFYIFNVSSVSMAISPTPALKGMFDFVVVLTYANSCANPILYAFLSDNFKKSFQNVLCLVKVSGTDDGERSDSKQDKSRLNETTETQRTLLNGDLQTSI

Chain of HSA (P02768 25-609): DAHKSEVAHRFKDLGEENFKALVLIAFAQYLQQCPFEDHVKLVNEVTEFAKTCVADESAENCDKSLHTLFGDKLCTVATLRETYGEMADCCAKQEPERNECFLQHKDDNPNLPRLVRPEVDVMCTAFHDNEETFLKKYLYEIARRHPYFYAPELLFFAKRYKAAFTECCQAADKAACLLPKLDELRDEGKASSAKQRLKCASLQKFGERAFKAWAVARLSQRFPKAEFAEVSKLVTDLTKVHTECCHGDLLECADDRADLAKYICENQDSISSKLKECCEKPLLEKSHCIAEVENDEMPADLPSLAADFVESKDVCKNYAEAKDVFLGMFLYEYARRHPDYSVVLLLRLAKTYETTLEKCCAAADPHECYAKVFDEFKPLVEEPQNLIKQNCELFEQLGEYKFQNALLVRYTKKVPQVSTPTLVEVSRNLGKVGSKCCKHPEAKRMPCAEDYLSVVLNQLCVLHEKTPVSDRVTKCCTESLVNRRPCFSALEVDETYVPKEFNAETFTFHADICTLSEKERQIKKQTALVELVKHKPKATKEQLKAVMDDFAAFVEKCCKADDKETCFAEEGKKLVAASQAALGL

Row | Compound | HSA (HSA) | LogDpH=7.4 [1] | IC50 (SST2)
1 | C[C@@H](O)[C@H](NC(=O)C1CSSCC(NC(=O)C(Cc2ccccc2)NC(=O)CNC(=O)CNC(=O)[C@@H](CCCN)NC(=O)C(CCCN)NC(=O)[C@@H](CNC(=O)CC[C@H](C(=O)O)N2CCN(CC(=O)O)CCN(CC(=O)O)CCN(CC(=O)O)CC2)NC(=O)C(CN)NC(=O)c2ccc([Si](F)(C(C)(C)C)C(C)(C)C)cc2)C(=O)N[C@@H](Cc2ccc(O)cc2)C(=O)NC(Cc2c[nH]c3ccccc23)C(=O)N[C@@H](CCCCN)C(=O)N[C@@H]([C@@H](C)O)C(=O)N1)C(=O)O (some centres unmarked) (natGa complex, metal not drawn) [[Ga]37] | 17.60 kDa | −1.92 ± 0.04 | 4.66 ± 0.53 nM
2 | C[C@@H](O)[C@H](NC(=O)C1CSSCC(NC(=O)C(Cc2ccccc2)NC(=O)CNC(=O)C(CC(=O)O)NC(=O)[C@@H](CC(=O)O)NC(=O)C(CNC(=O)CN2CCN(CC(=O)O)CCN(CC(=O)O)CCN(CC(=O)O)CC2)NC(=O)[C@@H](CN)NC(=O)c2ccc([Si](F)(C(C)(C)C)C(C)(C)C)cc2)C(=O)N[C@@H](Cc2ccc(O)cc2)C(=O)NC(Cc2c[nH]c3ccccc23)C(=O)N[C@@H](CCCCN)C(=O)N[C@@H]([C@@H](C)O)C(=O)N1)C(=O)O (some centres unmarked) (natGa complex, metal not drawn) [[Ga]39] | 24.96 kDa | −2.20 ± 0.05 | 14.9 ± 1.22 nM
3 | C[C@@H](O)[C@H](NC(=O)C1CSSCC(NC(=O)C(Cc2ccccc2)NC(=O)CNC(=O)CNC(=O)CNC(=O)C(CC(=O)O)NC(=O)[C@@H](CC(=O)O)NC(=O)C(CNC(=O)CN2CCN(CC(=O)O)CCN(CC(=O)O)CCN(CC(=O)O)CC2)NC(=O)[C@@H](CN)NC(=O)c2ccc([Si](F)(C(C)(C)C)C(C)(C)C)cc2)C(=O)N[C@@H](Cc2ccc(O)cc2)C(=O)NC(Cc2c[nH]c3ccccc23)C(=O)N[C@@H](CCCCN)C(=O)N[C@@H]([C@@H](C)O)C(=O)N1)C(=O)O (some centres unmarked) (natGa complex, metal not drawn) [[Ga]40] | 19.25 kDa | −2.24 ± 0.03 | 3.61 ± 0.29 nM
4 | C[C@@H](O)[C@H](NC(=O)C1CSSCC(NC(=O)C(Cc2ccccc2)NC(=O)CNC(=O)CNC(=O)[C@@H](CC(N)=O)NC(=O)C(CC(N)=O)NC(=O)[C@@H](CNC(=O)CC[C@H](C(=O)O)N2CCN(CC(=O)O)CCN(CC(=O)O)CCN(CC(=O)O)CC2)NC(=O)C(CN)NC(=O)c2ccc([Si](F)(C(C)(C)C)C(C)(C)C)cc2)C(=O)N[C@@H](Cc2ccc(O)cc2)C(=O)NC(Cc2c[nH]c3ccccc23)C(=O)N[C@@H](CCCCN)C(=O)N[C@@H]([C@@H](C)O)C(=O)N1)C(=O)O (some centres unmarked) (natGa complex, metal not drawn) [[Ga]41] | 15.48 kDa | −1.58 ± 0.05 | 3.64 ± 0.64 nM
5 | C[C@@H](O)[C@H](NC(=O)C1CSSCC(NC(=O)C(Cc2ccccc2)NC(=O)[C@@H](CC(N)=O)NC(=O)C(CC(N)=O)NC(=O)[C@@H](CC(=O)O)NC(=O)C(CC(=O)O)NC(=O)[C@@H](CNC(=O)CN2CCN(CC(=O)O)CCN(CC(=O)O)CCN(CC(=O)O)CC2)NC(=O)C(CN)NC(=O)c2ccc([Si](F)(C(C)(C)C)C(C)(C)C)cc2)C(=O)N[C@@H](Cc2ccc(O)cc2)C(=O)NC(Cc2c[nH]c3ccccc23)C(=O)N[C@@H](CCCCN)C(=O)N[C@@H]([C@@H](C)O)C(=O)N1)C(=O)O (some centres unmarked) (natGa complex, metal not drawn) [[Ga]42] | 17.97 kDa | −2.41 ± 0.05 | 5.33 ± 0.78 nM
6 | C[C@@H](O)[C@H](NC(=O)C1CSSCC(NC(=O)C(Cc2ccccc2)NC(=O)CNC(=O)CNC(=O)CNC(=O)C(CC(=O)O)NC(=O)[C@@H](CC(=O)O)NC(=O)C(CNC(=O)CN2CCN(CC(=O)O)CCN(CC(=O)O)CCN(CC(=O)O)CC2)NC(=O)[C@@H](CN)NC(=O)CNC(=O)C[N+](C)(C)Cc2ccc([Si](F)(C(C)(C)C)C(C)(C)C)cc2)C(=O)N[C@@H](Cc2ccc(O)cc2)C(=O)NC(Cc2c[nH]c3ccccc23)C(=O)N[C@@H](CCCCN)C(=O)N[C@@H]([C@@H](C)O)C(=O)N1)C(=O)O (some centres unmarked) [[Ga]52] | 7.82 kDa | −2.00 ± 0.02 | –
7 | C[C@@H](O)[C@H](NC(=O)C1CSSCC(NC(=O)C(Cc2ccccc2)NC(=O)CNC(=O)CNC(=O)CNC(=O)C(CC(=O)O)NC(=O)[C@@H](CC(=O)O)NC(=O)C(CNC(=O)CN2CCN(CC(=O)O)CCN(CC(=O)O)CCN(CC(=O)O)CC2)NC(=O)[C@@H](CN)NC(=O)CNC(=O)CNC(=O)C[N+](C)(C)Cc2ccc([Si](F)(C(C)(C)C)C(C)(C)C)cc2)C(=O)N[C@@H](Cc2ccc(O)cc2)C(=O)NC(Cc2c[nH]c3ccccc23)C(=O)N[C@@H](CCCCN)C(=O)N[C@@H]([C@@H](C)O)C(=O)N1)C(=O)O (some centres unmarked) [[Ga]53] | 8.48 kDa | −1.96 ± 0.01 | –
8 | C[C@@H](O)[C@H](NC(=O)C1CSSCC(NC(=O)C(Cc2ccccc2)NC(=O)CNC(=O)CNC(=O)[C@@H](CC(=O)O)NC(=O)C(CC(=O)O)NC(=O)[C@@H](CNC(=O)CC[C@H](C(=O)O)N2CCN(CC(=O)O)CCN(CC(=O)O)CCN(CC(=O)O)CC2)NC(=O)C(CN)NC(=O)c2ccc([Si](F)(C(C)(C)C)C(C)(C)C)cc2)C(=O)N[C@@H](Cc2ccc(O)cc2)C(=O)NC(Cc2c[nH]c3ccccc23)C(=O)N[C@@H](CCCCN)C(=O)N[C@@H]([C@@H](C)O)C(=O)N1)C(=O)O (some centres unmarked) [[Lu]20] | 18.76 kDa | −2.35 ± 0.04 | –
9 | C[C@@H](O)[C@H](NC(=O)C1CSSCC(NC(=O)C(Cc2ccccc2)NC(=O)CNC(=O)CNC(=O)CNC(=O)C(CC(=O)O)NC(=O)[C@@H](CC(=O)O)NC(=O)C(CNC(=O)CN2CCN(CC(=O)O)CCN(CC(=O)O)CCN(CC(=O)O)CC2)NC(=O)C[N+](C)(C)Cc2ccc([Si](F)(C(C)(C)C)C(C)(C)C)cc2)C(=O)N[C@@H](Cc2ccc(O)cc2)C(=O)NC(Cc2c[nH]c3ccccc23)C(=O)N[C@@H](CCCCN)C(=O)N[C@@H]([C@@H](C)O)C(=O)N1)C(=O)O (some centres unmarked) [[Lu]50] | 8.17 kDa | −1.79 ± 0.02 | –
10 | C[C@@H](O)[C@H](NC(=O)C1CSSCC(NC(=O)C(Cc2ccccc2)NC(=O)CNC(=O)CNC(=O)CNC(=O)C(CC(=O)O)NC(=O)[C@@H](CC(=O)O)NC(=O)C(CNC(=O)CN2CCN(CC(=O)O)CCN(CC(=O)O)CCN(CC(=O)O)CC2)NC(=O)[C@@H](CN)NC(=O)C[N+](C)(C)Cc2ccc([Si](F)(C(C)(C)C)C(C)(C)C)cc2)C(=O)N[C@@H](Cc2ccc(O)cc2)C(=O)NC(Cc2c[nH]c3ccccc23)C(=O)N[C@@H](CCCCN)C(=O)N[C@@H]([C@@H](C)O)C(=O)N1)C(=O)O (some centres unmarked) [[Lu]51] | 8.84 kDa | −1.71 ± 0.05 | –
11 | C[C@@H](O)[C@H](NC(=O)C1CSSCC(NC(=O)C(Cc2ccccc2)NC(=O)CNC(=O)CNC(=O)CNC(=O)C(CC(=O)O)NC(=O)[C@@H](CC(=O)O)NC(=O)C(CNC(=O)CN2CCN(CC(=O)O)CCN(CC(=O)O)CCN(CC(=O)O)CC2)NC(=O)[C@@H](CN)NC(=O)CNC(=O)C[N+](C)(C)Cc2ccc([Si](F)(C(C)(C)C)C(C)(C)C)cc2)C(=O)N[C@@H](Cc2ccc(O)cc2)C(=O)NC(Cc2c[nH]c3ccccc23)C(=O)N[C@@H](CCCCN)C(=O)N[C@@H]([C@@H](C)O)C(=O)N1)C(=O)O (some centres unmarked) [[Lu]52] | 8.47 kDa | −1.88 ± 0.05 | –
12 | C[C@@H](O)[C@H](NC(=O)C1CSSCC(NC(=O)C(Cc2ccccc2)NC(=O)CNC(=O)CNC(=O)CNC(=O)C(CC(=O)O)NC(=O)[C@@H](CC(=O)O)NC(=O)C(CNC(=O)CN2CCN(CC(=O)O)CCN(CC(=O)O)CCN(CC(=O)O)CC2)NC(=O)[C@@H](CN)NC(=O)CNC(=O)CNC(=O)C[N+](C)(C)Cc2ccc([Si](F)(C(C)(C)C)C(C)(C)C)cc2)C(=O)N[C@@H](Cc2ccc(O)cc2)C(=O)NC(Cc2c[nH]c3ccccc23)C(=O)N[C@@H](CCCCN)C(=O)N[C@@H]([C@@H](C)O)C(=O)N1)C(=O)O (some centres unmarked) [[Lu]53] | 9.81 kDa | −1.74 ± 0.03 | –
13 | C[C@@H](O)[C@H](NC(=O)C1CSSCC(NC(=O)C(Cc2ccccc2)NC(=O)CNC(=O)CNC(=O)[C@@H](CC(=O)O)NC(=O)C(CC(=O)O)NC(=O)[C@@H](CNC(=O)CN2CCN(CC(N)=O)CCN(CC(N)=O)CCN(CC(N)=O)CC2)NC(=O)C[N+](C)(C)Cc2ccc([Si](F)(C(C)(C)C)C(C)(C)C)cc2)C(=O)N[C@@H](Cc2ccc(O)cc2)C(=O)NC(Cc2c[nH]c3ccccc23)C(=O)N[C@@H](CCCCN)C(=O)N[C@@H]([C@@H](C)O)C(=O)N1)C(=O)O (some centres unmarked) [[Pb]38] (X1-[dDap](DO3AM)[ξD][dD]GG[ξF][ξC]Y[ξW]KT[ξC]T-OH; disulfide 7-12) | 9.20 kDa | −1.95 ± 0.03 | 4.67 ± 0.73 nM
